Reference: patent US12357596B2, “Compounds for prevention and treatment of obesity and related disorders” (ABREXA PHARMACEUTICALS, INC., priority 2019, dated 2025)

How the values were obtained:
[1] = Toxicokinetics in satellite animals of the 28-day oral gavage study (plasma, Day 1); type: in vivo, Sprague-Dawley rats; conditions: Sprague-Dawley, rat, Day 1, 30 mg/kg/day (NOAEL), for information only (ISR failed)
Experimental: J147 or vehicle was administered once daily to Sprague-Dawley rats via oral gavage for 28 consecutive days at a daily dose of 0, 30, 100 or 300 mg/kg. J174 was prepared in a vehicle formulation comprising 5% ethanol, 5% DMSO and 90% corn oil (v/v/v). Certified rodent diet and water was available ad libitum. Groups 1-4 contained 10 animals/sex/group. Groups 1 (control) and 4 (high dose) also included an additional 5 animals/sex/group for use as recovery animals. The recovery animals were maintained on study for a 14-day postdosing recovery period. Animals in Groups 1-4 were monitored for morbidity and mortality, clinical signs, detailed clinical observations, body weight, food consumption, ophthalmologic parameters, neurobehavioral assessment consisting of a Functional Observational Battery (FOB) and a motor activity test, hematology, coagulation, serum chemistry, and urinalysis parameters. Postmortem assessment included necropsy, measurement of selected organ weights, and microscopic evaluation of a standard set of tissues. Plasma samples for bioanalysis were collected on Days 1 and 28 from satellite toxicokinetic animals in Groups 5 through 8. Animals in these groups were euthanized following the last blood sampling and carcasses were discarded without examination. The study protocol is shown below in Table 1.
Additionally, analysis of Day 28 samples also occurred outside the known long-term stability (LTS) range of the validated bioanalytical method. Thus, the bioanalytical and toxicokinetic results for J147 are considered to be for information only. The bioanalytical and toxicokinetic analysis results should also be considered in light of the fact that Day 28 samples were analyzed outside of their LTS.
Given that there was clear evidence of toxicity at the mid and high dose groups, the Study Director believes that this study met the objective of examining the toxicity profile of J147. […] Under the conditions of this study, the no-observed-adverse-effect-level (NOAEL) for J147 was considered to be 30 mg/kg/day. […] Cmax and AUC0-last values should be considered in light of the caveats mentioned in the preceding paragraph. The lowest-observed-adverse-effect-level (LOAEL) is 100 mg/kg/day in both sexes based on test article-related decreases in body weight/body weight gain and food consumption, decreased activity, decreases in measures of red blood cell mass, decreased prothrombin time, decreased serum glucose and triglycerides, decreased thymus weights, and single cell necrosis of pancreatic acinar cells in males.

[2] = Oral gavage study up to 28 days at 0, 30, 100 and 300 mg/kg/day (body weight, food consumption); type: in vivo, beagle dogs
Experimental: J147 or vehicle was administered once daily to beagle dogs via oral gavage for up to 28 days at a daily dose of 0, 30, 100 and 300 mg/kg. J174 was prepared in a vehicle formulation comprising 5% ethanol, 5% DMSO and 90% corn oil (v/v/v). Block Lab Diet (Certified Canine Diet #5007, PMI Nutrition International, Inc.) was offered via limited feedings, except during designated periods. The animals were offered food 2 hours post-dose on each dosing day for 2 to 5 hours. Food was offered 2 to 5 hours/day during the acclimation period and during the recovery period. Tap water was available ad libitum via an automatic watering system. The study protocol is shown below in Table 9.

[3] = dogs, all J147-treated groups (30, 100, 300 mg/kg/day), both sexes
[4] = female dogs, 30 mg/kg/day, Day 28
[5] = female dogs, 100 mg/kg/day, Day 28
[6] = female dogs, 300 mg/kg/day, Day 21 versus the Day 28 control value
[7] = male dogs, 30 mg/kg/day, Day 28
[8] = male dogs, 100 mg/kg/day, Day 28
[9] = male dogs, 300 mg/kg/day, Day 22 versus the Day 28 control value

For `COc1cccc(/C=N/N(C(=O)C(F)(F)F)c2ccc(C)cc2C)c1` [J147], the AUC(0-t) ([1]; female rats) was 233 ng·h/mL, the Cmax ([1]; female rats) was 50.8 ng/mL and the AUC(0-t) ([1]; male rats) was 835 ng·h/mL. The Cmax ([1]; male rats) was 146 ng/mL, the “Body weight and body weight gain compared to the vehicle-treated control group” value [2, 3] was “decreased” and the “Food consumption compared to the vehicle-treated control group” value [2, 3] was “decreased”. The “Decrease of group mean body weight” value [2, 4] was 19%, the “Decrease of group mean food consumption” value [2, 4] was 45% and the “Decrease of group mean body weight” value [2, 5] was 21%. For the same compound, the “Decrease of group mean food consumption” value [2, 5] was 48%, the “Decrease of group mean body weight” value [2, 6] was 23% and the “Decrease of group mean food consumption” value [2, 6] was 38%. The “Decrease of group mean body weight” value [2, 7] was 23%, the “Decrease of group mean food consumption” value [2, 7] was 31% and the “Decrease of group mean body weight” value [2, 8] was 26%. For the same compound, the “Decrease of group mean food consumption” value [2, 8] was 39%, the “Decrease of group mean body weight” value [2, 9] was 18% and the “Decrease of group mean food consumption” value [2, 9] was 48%.
